Data set [1] can be described thus: Retention time of the compound by HPLC analysis. In kind it is physicochemical.
Data set [2] is described as follows: Chemical stability of the compound in phosphate buffer saline assessed as half life at pH 7.3 by HPLC analysis. In kind it is physicochemical. As to conditions: phosphate buffered saline.
A short description of data set [3]: Prodrug conversion in pH 7.3 phosphate buffer assessed as metabolite formation by measuring half life in presence of pig liver esterase by HPLC analysis. In kind it is ADME. As to conditions: isolated protein.
Data set [4] can be described thus: Prodrug conversion in human CEM/0 cell extract assessed as metabolite formation by measuring half life by HPLC analysis. In kind it is ADME. To be noted: ccrf-cem.
In data set [5] the test system is Human immunodeficiency virus 1. Kind of data set: Antiviral activity against HIV-1 HE infected in wild-type human CEM/0 cells assessed as inhibition of virus-induced cytopathic effect incubated for 4 to 5 days by light microscopic analysis. The format is functional, organism-based. To be noted: Human immunodeficiency virus 1, HE, CCRF-CEM. (Cytopathic effects are the visible damage that an infection or toxin causes in cultured cells.)

Data set [6] deals with Human immunodeficiency virus 2. Kind of data set: Antiviral activity against HIV-2 ROD infected in wild-type human CEM/0 cells assessed as inhibition of virus-induced cytopathic effect incubated for 4 to 5 days by light microscopic analysis. The format is functional, organism-based. To be noted: Human immunodeficiency virus 2, ROD, CCRF-CEM.
The subject of data set [7] is Human immunodeficiency virus 2. Kind of data set: Antiviral activity against HIV-2 ROD infected in thymidine kinase-deficient human CEM cells assessed as inhibition of virus-induced cytopathic effect incubated for 4 to 5 days by light microscopic analysis. The format is functional, organism-based. As to conditions: Human immunodeficiency virus 2, ROD, CCRF-CEM.
The nature of data set [8]: Cytotoxicity against human CEM cells assessed as reduction in cell viability incubated for 4 to 5 days by light microscopic analysis. In kind it is toxicity, cell-based. As to conditions: CEM cells (CCRF-CEM), time 4-5 day.
The nature of data set [9]: Selectivity index, ratio of CC50 for human CEM cells to EC50 for HIV-2 ROD infected in thymidine kinase-deficient human CEM cells. The format is toxicity. As to conditions: read-out: Ratio CC50/EC50.

Experimental findings from ChEMBL document CHEMBL5365447, “Pronucleotides of 2',3'-Dideoxy-2',3'-Didehydrothymidine as Potent Anti-HIV Compounds” (J Med Chem, 2023) are described below.

Broadly, the half-life is the time in which the quantity being followed falls by half. As a reminder, the EC50 is the midpoint of the concentration-response curve. Broadly, the CC50 is the concentration that lowers cell viability or growth by half. Regarding `CCCCCCCCCCCCP(=O)(OCc1ccc(OC(=O)CCCCCCCCCCC)cc1)OP(=O)(O)OC[C@@H]1C=C[C@H](n2cc(C)c(=O)[nH]c2=O)O1.N` (stereo partly drawn), the Retention_time in data set [1] was 20.6 min. Further, the half-life in [2] is over 83.3 days. Further, the results for the t1/2 in [3] and in data set [4] were 0.27 h and 3 h, respectively. The EC50 in data set [5] is 130 nM; in data set [6] it was 60 nM; in data set [7] it was 10 nM. Further, the CC50 in data set [8] turned out to be 41100 nM. The selectivity ratio in data set [9] was 4110.

`CCCCOP(=O)(OCc1ccc(OC(=O)CCCC)cc1)OP(=O)(O)OC[C@@H]1C=C[C@H](n2cc(C)c(=O)[nH]c2=O)O1.N` (stereo partly drawn) registered a Retention_time in data set [1] of 12.5 min. In addition, in data set [2], the half-life is 5.46 days. The t1/2 was under 0.01 h in data set [3] and 0.36 h in data set [4]. The EC50 in data set [5] came out at 440 nM; in data set [6] it was 170 nM; in data set [7] it was 19200 nM. For the same compound, the CC50 in data set [8] was over 100000 nM. For the same compound, the selectivity ratio in data set [9] is over 5.

In [1], `CCCCCCCCCCCCOP(=O)(OCc1ccc(OC(=O)CCCC)cc1)OP(=O)(O)OC[C@@H]1C=C[C@H](n2cc(C)c(=O)[nH]c2=O)O1.N` (stereo partly drawn) displayed a Retention_time of 16.6 min. The half-life in [2] was 11.9 days. Also, the t1/2 was under 0.01 h in [3] and 1.1 h in data set [4]. Also, the EC50 amounted to 390 nM in data set [5], 360 nM in [6] and 1390 nM in [7]. In data set [8], the CC50 is over 100000 nM. Further, the selectivity ratio in data set [9] is over 72.

For `CCCCCCCCCCCC(=O)Oc1ccc(COP(=O)(OCCCC)OP(=O)(O)OC[C@@H]2C=C[C@H](n3cc(C)c(=O)[nH]c3=O)O2)cc1.N` (stereo partly drawn), in [1], the Retention_time was 16.6 min. Further, the half-life in data set [2] is 11.6 days. Further, the Drug metabolism result in data set [3] and in data set [4] was “Metabolite_Notdetected” each time. The EC50 in [5] was 230 nM; in [6] it was 53 nM; in data set [7], 750 nM. The CC50 in data set [8] turned out to be 83100 nM. For the same compound, the selectivity ratio in [9] amounted to 111.

In turn, `CCCCCCCCCCCCCCCCCCP(=O)(OCc1ccc(OC(=O)CCCC)cc1)OP(=O)(O)OC[C@@H]1C=C[C@H](n2cc(C)c(=O)[nH]c2=O)O1.N` (stereo partly drawn) returned a Retention_time in [1] of 20 min. Besides, the half-life in data set [2] was over 83.3 days. The t1/2 in [3] was 0.25 h; in [4], over 8 h. Further, the results for the concentration for a half-maximal effect (EC50) in data set [5], in data set [6] and in [7] were 44 nM, 42 nM and 2 nM, respectively. In [8], the CC50 was determined as 14600 nM. Besides, in data set [9], the selectivity ratio came to 7290.

As for `CCCCCCCCCCCCP(=O)(OCc1ccc(OC(=O)CCCC)cc1)OP(=O)(O)OC[C@@H]1C=C[C@H](n2cc(C)c(=O)[nH]c2=O)O1.N` (stereo partly drawn), the Retention_time in [1] is on record as 16.3 min. Moreover, in data set [2], the half-life is 29.2 days. The Drug metabolism result in data set [3] and in [4] was “Metabolite_Notdetected” in each case. The EC50 turned out to be 560 nM in data set [5], 420 nM in [6] and 760 nM in data set [7]. The CC50 in data set [8] worked out at 66700 nM. For the same compound, the selectivity ratio in [9] was determined as 88.

As for `CCCCC(=O)Oc1ccc(COP(=O)(OC)OP(=O)(O)OC[C@@H]2C=C[C@H](n3cc(C)c(=O)[nH]c3=O)O2)cc1.N` (stereo partly drawn), the Retention_time in data set [1] turned out to be 11.3 min. In addition, the half-life in data set [2] is 3.5 days. Moreover, the Drug metabolism entry in data set [3] and in data set [4] was “Metabolite_Notdetected” each time. The EC50 in [5] amounted to 430 nM; in [6], 410 nM; in [7] it was 8950 nM. The CC50 in data set [8] is over 100000 nM. Also, the selectivity ratio in [9] was over 11.
